Experimental data reported in patent US12564595B2, “Prophylactic and therapeutic pharmaceutical agent for HIV infectious diseases characterized by comprising combination of integrase inhibitor and anti-HIV agent” (Shionogi & Co., Ltd., priority 2019, dated 2026).

How the values were obtained:
HIV [1] = assay: microbe, parasite or virus in culture; format: cell-based; conditions: Human immunodeficiency virus 1, MT4, 96 h, read-out: EC50 (50% HIV inhibition concentration), MT-4 cells, HIV, cultured four days, MTT; compounds of formula (I) of (A)
Method in brief: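 MT-4 cells infected with HIV in the presence of serially diluted test samples and cultured four days at CO2 incubator conditions. Cell viability measured by MTT reduction (1 h), solubilised formazan read at 560/690 nm.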

[2] = test system: HIV mutant strain 1 (E138K/G140S/Q148H/N155H); assay: Test Example 2: resistance evaluation test (HeLa-CD4 reporter), mutant strain 1; format: cell-based; conditions: FC=EC50 of mutant strain/EC50 of wild strain; HeLa-CD4 cells
Method in brief: (§1)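 HeLa-CD4 reporter cells were infected with wild-type or mutant HIV in the presence of serially diluted compound and cultured 3 days. Cell lysates were read by chemiluminescent reporter assay after about 1 h at room temperature. Fold change was calculated as mutant EC50 divided by wild-type EC50.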

[3] = test system: HIV mutant strain 2 (E92Q/E138T/G140S/Q148H); assay: Test Example 2: resistance evaluation test (HeLa-CD4 reporter), mutant strain 2; format: cell-based; conditions: FC=EC50 of mutant strain/EC50 of wild strain; HeLa-CD4 cells
Method in brief: as §1

HIV [4] = assay: Test Example 3: test for confirmation of combined use effect; format: cell-based; set-up: key to D value (dosewise additivity value): <-0.1 synergy, -0.1 to 0.1 additive, >0.1 antagonism
Text: The two compounds in respect of which the effect of combined use was desired to be examined were mixed in various ratios, and the anti-HIV activity (50% HIV inhibiting concentration) for each combination was found by the method of test example 1. […] A brief description of the method of calculating the D value is given below.
The D value that is found by evaluating the anti-HIV activity of respective combinations of M concentrations of compound X1 and N concentrations of compound X2 is calculated by the following mathematical expression 1.
The effect of combined use was evaluated in terms of the D value in accordance with the following criteria • −0.5 to −0.2: strong synergetic effect • −0.2 to −0.1: weak synergetic effect • […]: additive synergetic effect • 0.1 to 0.2: weak antagonism • 0.2 to 0.5: strong antagonism

[5] = Test Example 8: metabolic stability test; format: in vitro ADME, human; conditions: pooled human liver microsomes, 30 min at 37° C., NADPH, compound concentration 0.5 μmol/L
Method in brief: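 Pooled human liver microsomes (0.5 mg protein/mL, Tris-HCl pH 7.4) incubated with compound and 1 mmol/L NADPH for 0 or 30 min at 37° C. After methanol/acetonitrile quench, remaining parent was quantified by LC/MS/MS or SPE/MS and expressed as % of the 0 min amount.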

[6] = target: T1, voltage-gated sodium channel (Nav 1.5 channel) (Homo sapiens, UniProt Q14524); assay: Test Example 14: Nav test (patch clamp, HEK cells); format: cell-based; conditions: HEK cells expressing Nav 1.5 channel, whole cell patch clamp
T1 construct: expressed in transfected cells; host or cells: HEK cells
Description: Using a fully automatic patch clamp system (QPatch: Sophion Bioscience A/S), by the whole cell patch clamp method, the cells were maintained at a membrane potential of −100 mV and the induced INa when a −10 mV depolarization stimulus was applied for 20 msec was recorded. […] From the INa obtained, using analysis software (QPatch: Sophion Bioscience A/S), the absolute value of the maximum peak current was measured, with reference to the current value at the maintained membrane potential.

HIV [7] = assay: Test Example 16: anti-HIV activity in the presence of human serum protein (MT-4 cells); format: cell-based; conditions: 100% extrapolation value, PS=4×(EC50 with 25% human serum protein/EC50 with no human serum protein)
Description: A stage dilution series of the test samples was created on a 96-well microplate (50 μL/well).
Aliquots of human serum protein solution (human serum protein concentration 50%) were dispensed in the amount of 100 μL/well to a 96-well microplate containing the test sample. This was then left to stand for 1 h at room temperature. Culture medium in the amount of 100 μL/well in each case was dispensed to a serum-free plate for control purposes. Aliquots of MT-4 cells in the amount of 3.0×10^5/well and HIV virus liquid in the amount of 3 μL/well were mixed for the necessary number of wells and reacted for 1 h at 37° C. After the reaction, the cell suspension was centrifuged and the supernatant discarded; aliquots of infected cells were distributed to culture medium in the amount of 50 μL/well and were dispensed in the amount of 50 μL/well in each case into the wells of a 96-well microplate containing test samples and human serum protein (human serum protein concentration: 25%). Mixing was performed using a plate mixer and culturing was performed for four days with a CO2 incubator. […] MTT(3-(4, 5-dimethylthiazol-2-yl)-2, 5-diphenyltetrazolium bromide) liquid in the amount of 30 μL was dispensed to each of the wells. The reaction was performed for 1 h in a CO2 incubator. 150 μL supernatant was removed to avoid aspirating cells from the wells. 150 μL of cell solution was added and thorough mixing was performed, using a plate mixer, until all the cells were dissolved. The optical absorbance on the mixed plate was measured at two wavelengths, namely, 560 nm/690 nm, using a microplate reader.
Next, the potency shift (PS) was calculated, using the following formula. The PS is the value of the human serum protein concentration, extrapolated to 100%.

[8] = combination with compound (B) Compound C (CAI)
[9] = combination with compound (B) Darunavin (PI)
[10] = combination with compound (B) Darunavir (PI)
[11] = combination with compound (B) GS-6207 (CAI)
[12] = combination with compound (B) GSK2838232 (maturation inhibitor)
[13] = combination with compound (B) I′-189 (INLAI)
[14] = combination with compound (B) Lilpiperine (polymerase inhibitor)
[15] = combination with compound (B) Ramipzin (3TC) (polymerase inhibitor)
[16] = combination with compound (B) Rilpivirine (polymerase inhibitor)
[17] = combination with compound (B) VM-1500 (polymerase inhibitor)

T1 sequence (Q14524 whole entry): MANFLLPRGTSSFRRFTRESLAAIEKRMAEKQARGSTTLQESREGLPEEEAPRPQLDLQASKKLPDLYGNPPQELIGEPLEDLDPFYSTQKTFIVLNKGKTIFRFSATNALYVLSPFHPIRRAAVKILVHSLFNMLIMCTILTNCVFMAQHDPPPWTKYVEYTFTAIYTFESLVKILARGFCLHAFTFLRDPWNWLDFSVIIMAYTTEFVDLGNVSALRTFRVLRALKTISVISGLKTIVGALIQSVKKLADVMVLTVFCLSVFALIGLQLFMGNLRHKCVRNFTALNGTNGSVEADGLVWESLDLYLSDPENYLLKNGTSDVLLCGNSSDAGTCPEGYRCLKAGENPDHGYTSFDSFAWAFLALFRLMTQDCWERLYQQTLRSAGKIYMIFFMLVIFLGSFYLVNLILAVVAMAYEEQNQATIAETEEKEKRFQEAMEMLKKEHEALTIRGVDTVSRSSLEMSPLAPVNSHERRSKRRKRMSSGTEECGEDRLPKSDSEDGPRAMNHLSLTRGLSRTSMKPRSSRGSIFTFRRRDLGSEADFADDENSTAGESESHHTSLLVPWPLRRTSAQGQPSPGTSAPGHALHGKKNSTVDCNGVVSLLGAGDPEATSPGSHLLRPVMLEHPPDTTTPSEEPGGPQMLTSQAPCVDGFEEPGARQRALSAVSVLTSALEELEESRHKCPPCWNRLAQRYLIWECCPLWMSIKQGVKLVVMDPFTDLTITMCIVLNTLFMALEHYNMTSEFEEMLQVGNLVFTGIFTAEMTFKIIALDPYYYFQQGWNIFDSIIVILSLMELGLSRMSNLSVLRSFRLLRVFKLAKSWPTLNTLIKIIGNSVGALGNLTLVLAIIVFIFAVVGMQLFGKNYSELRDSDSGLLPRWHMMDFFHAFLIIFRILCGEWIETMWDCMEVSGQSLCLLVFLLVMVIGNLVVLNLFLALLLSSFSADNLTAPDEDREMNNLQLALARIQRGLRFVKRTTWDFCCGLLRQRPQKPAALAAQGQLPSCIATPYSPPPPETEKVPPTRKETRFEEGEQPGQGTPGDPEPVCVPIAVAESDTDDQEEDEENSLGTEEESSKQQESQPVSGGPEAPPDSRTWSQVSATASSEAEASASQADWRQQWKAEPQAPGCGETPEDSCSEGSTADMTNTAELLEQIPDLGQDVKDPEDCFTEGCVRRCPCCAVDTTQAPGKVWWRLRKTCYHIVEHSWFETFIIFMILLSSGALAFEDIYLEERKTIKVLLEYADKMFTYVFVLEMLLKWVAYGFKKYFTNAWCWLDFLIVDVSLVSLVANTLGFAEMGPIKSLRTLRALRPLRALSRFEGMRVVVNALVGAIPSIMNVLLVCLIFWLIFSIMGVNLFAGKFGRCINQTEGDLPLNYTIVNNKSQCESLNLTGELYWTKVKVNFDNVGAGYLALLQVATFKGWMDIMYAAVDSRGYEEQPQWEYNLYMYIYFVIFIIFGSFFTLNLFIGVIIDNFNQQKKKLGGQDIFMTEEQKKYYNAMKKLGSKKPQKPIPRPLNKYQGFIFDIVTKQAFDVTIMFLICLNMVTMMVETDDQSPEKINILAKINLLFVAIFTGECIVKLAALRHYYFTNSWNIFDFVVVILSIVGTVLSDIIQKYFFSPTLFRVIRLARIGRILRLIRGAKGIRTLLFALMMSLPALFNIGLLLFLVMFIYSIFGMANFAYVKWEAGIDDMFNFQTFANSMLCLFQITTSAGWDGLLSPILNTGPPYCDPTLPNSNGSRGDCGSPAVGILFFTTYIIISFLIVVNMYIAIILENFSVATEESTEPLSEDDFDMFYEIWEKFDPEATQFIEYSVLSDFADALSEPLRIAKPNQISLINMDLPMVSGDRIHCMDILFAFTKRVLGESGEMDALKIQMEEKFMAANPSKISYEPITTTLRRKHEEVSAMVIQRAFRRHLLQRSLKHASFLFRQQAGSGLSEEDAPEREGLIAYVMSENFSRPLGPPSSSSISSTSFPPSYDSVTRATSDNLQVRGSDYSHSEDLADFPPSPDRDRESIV

| Compound | FC in respect of mutant strain 1 (E138K/G140S/Q148H/N155H) [2] | FC in respect of mutant strain 2 (E92Q/E138T/G140S/Q148H) [3] | D value (dosewise additivity value) (HIV [4]; [8]) | effect of combined use (HIV [4]; [8]) | D value (dosewise additivity value) (HIV [4]; [9]) | effect of combined use (HIV [4]; [10]) | D value (dosewise additivity value) (HIV [4]; [11]) | effect of combined use (HIV [4]; [11]) | D value (dosewise additivity value) (HIV [4]; [12]) | effect of combined use (HIV [4]; [12]) | D value (dosewise additivity value) (HIV [4]; [13]) | effect of combined use (HIV [4]; [13]) | effect of combined use (HIV [4]; [14]) | D value (dosewise additivity value) (HIV [4]; [15]) | effect of combined use (HIV [4]; [15]) | D value (dosewise additivity value) (HIV [4]; [16]) | D value (dosewise additivity value) (HIV [4]; [17]) | effect of combined use (HIV [4]; [17]) | Remaining percentage [5] | potency shift (PS) in the presence of human serum protein (HIV [7]) | further results |
| --- | --- | --- | --- | --- | --- | --- | --- | --- | --- | --- | --- | --- | --- | --- | --- | --- | --- | --- | --- | --- | --- |
| CCN1C(=O)c2c(O)c(=O)c(-c3nnc(Cc4c(F)cc(F)cc4F)s3)cn2N2CCCC[C@@H]12 [Compound I-007] | 3.8 | 6.9 | 0.059 | Additive (−0.1 to −0.1: additive synergetic effect) | −0.096 | Additive (−0.1 to −0.1: additive synergetic effect) | −0.040 | Additive (−0.1 to −0.1: additive synergetic effect) | 0.017 | Additive (−0.1 to −0.1: additive synergetic effect) | 0.053 | Additive (−0.1 to −0.1: additive synergetic effect) | Additive (−0.1 to −0.1: additive synergetic effect) | −0.231 | Strong synergy (−0.5 to −0.2: strong synergetic effect) | −0.054 | −0.097 | Additive (−0.1 to −0.1: additive synergetic effect) | 97.7% | 116 | EC50 (HIV [1]): 1.6 nM; ratio of maximum peak current (INa) on application of compound to that on application of medium [6]: 103% |
| COC[C@@H]1CC[C@H]2N(C)C(=O)c3c(O)c(=O)c(C(=O)NCc4cccc(Cl)c4F)cn3N12 [II-026] | 10 | 6.9 | 0.043 | Additive (−0.1 to −0.1: additive synergetic effect) | −0.137 | Weak synergy (−0.2 to −0.1: weak synergetic effect) | −0.043 | Additive (−0.1 to −0.1: additive synergetic effect) | −0.061 | Additive (−0.1 to −0.1: additive synergetic effect) | 0.056 | Additive (−0.1 to −0.1: additive synergetic effect) | Additive (−0.1 to −0.1: additive synergetic effect) | −0.232 | Strong synergy (−0.5 to −0.2: strong synergetic effect) | −0.077 | −0.155 | Weak synergy (−0.2 to −0.1: weak synergetic effect) | 86% | 364 | ratio of maximum peak current (INa) on application of compound to that on application of medium [6]: 79% |
| CCN1C(=O)c2c(O)c(=O)c(C(=O)NCc3ccc(F)cc3F)cn2N2C[C@@H](C)C[C@@H]12 [II-045] | 19 | 21 | – | – | – | – | – | – | – | – | – | – | – | – | – | – | – | – | 96% | 236 | – |
